The source made the active and inactive calls. No cut-off for these calls is given here.
Columns and labels:
Caco-2 [1] = experiment: Increase in transepithelial electrical resistance in human Caco2 cells at 10 uM pre-treated on apical side and measured after 36 to 72 hrs; assay type: functional, cell-based
Caco-2 [2] = experiment: Inhibition of TNFalpha induced barrier dysfunctionin human Caco2 cells assessed as increase in transepithelial electrical resistance at 10 uM pre-treated on apical side for 1 hr before TNFalpha stimulation on basolateral side for 72 hrs by cellZScope monitoring device based assay; assay type: functional, cell-based
Caco-2 [3] = experiment: Inhibition of TNFalpha induced barrier dysfunctionin human Caco2 cells assessed as increase in transepithelial electrical resistance at 10 uM treated on apical side for 1 hr post TNFalpha stimulation on basolateral side for 24 hrs and measured after 72 hrs by cellZScope monitoring device based assay; assay type: functional, cell-based
Caco-2 [4] = experiment: Effect on barrier function in human Caco2 cells assessed as LY transport at 10 uM pre-treated on apical side for 1 hr and measured after 48 hrs; assay type: ADME, cell-based; conditions: caco-2, 48 h
Caco-2 [5] = experiment: Cytotoxicity in human Caco2 cells assessed as reduction in ATP metabolism at 100 uM incubated for 24 hrs by cell-titer-Glo luminescent cell viability assay; assay type: ADME, cell-based; conditions: caco-2, 24 h
Caco-2 [6] = experiment: Cytotoxicity in human Caco2 cells assessed as reduction in ATP metabolism at 1 to 50 uM incubated for 24 hrs by cell-titer-Glo luminescent cell viability assay; assay type: ADME, cell-based; conditions: caco-2, 24 h
Caco-2 [7] = experiment: Inhibition of TNFalpha induced barrier dysfunctionin human Caco2 cells assessed as prevention of morphological changes in ZO1 protein at 10 uM pre-treated on apical side for 1 hr before TNFalpha stimulation on basolateral side for 48 hrs by confocal laser scanning microscopy; assay type: functional, cell-based
Caco-2 [8] = experiment: Cytotoxicity in human Caco2 cells assessed as reduction in ATP metabolism at 1 to 100 uM incubated for 24 hrs by cell-titer-Glo luminescent cell viability assay; assay type: ADME, cell-based; conditions: caco-2, 24 h
Caco-2 [9] = experiment: Stimulation of growth in human Caco2 cells assessed as […] in ATP metabolism at 10 uM incubated for 24 hrs by cell-titer-Glo luminescent cell viability assay; assay type: functional, cell-based
Caco-2 [10] = experiment: Cytotoxicity in human Caco2 cells assessed as reduction in ATP metabolism at 50 to 100 uM incubated for 24 hrs by cell-titer-Glo luminescent cell viability assay; assay type: ADME, cell-based; conditions: caco-2, 24 h

SMILES | Activity (Caco-2 [1]) | inhibition (Caco-2 [2]) | inhibition (Caco-2 [3]) | Activity (Caco-2 [4]) | Activity (Caco-2 [5]) | Activity (Caco-2 [6]) | inhibition (Caco-2 [7]) | Activity (Caco-2 [8]) | Activity (Caco-2 [9]) | Activity (Caco-2 [10])
CC(C)=CCc1c(O)cc2c(c1O)C(=O)CC(c1ccc(O)cc1)O2 (centres undefined) | Active | Active | inactive | Non-Toxic | 18% | Non-Toxic |  |  |  | 
CC(C)=CCc1c(O)cc(O)c2c1O[C@H](c1ccc(O)cc1)CC2=O | Active | Active | Active | Non-Toxic |  |  | Active | Non-Toxic |  | 
COc1cc(O)c(CC=C(C)C)c(O)c1C(=O)/C=C/c1ccc(O)cc1 [XANTHOHUMOL] | Active | inactive | inactive | Non-Toxic |  |  | inactive |  | Active | 55.3%
